# PubChem BioAssay AID212 (DTP/NCI, 2004)
# Where “and” joins values, the source holds several entries; their conditions need not be identical. Equal entries are not always repeated. Inconclusive results are not listed. Where a SMILES comes first, the peptide text is derived from it. The star is where a group is joined. Trt = c1ccc(C(c2ccccc2)(c2ccccc2)*)cc1; Cbz = O=C(OCc1ccccc1)*
# Tested on: BDF1 mice, colon carcinoma 38 sc, T/C %
# Assay: NCI In Vivo Anticancer Drug Screen. Data for tumor model Colon Carcinoma 38 (subcutaneous) in B6D2F1 (BDF1) mice
# Summary of the method: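 Mice with transplanted tumors are treated with compound or vehicle. Survival or tumor size is then measured in both groups. The ratio of treated to control gives the reported figure.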
# [1] = endpoint: median tumor weight (est.), dose: 25.0 mg/kg/injection, schedule: Q07DX002 (ip), vehicle: saline with Tween-80, higher = larger tumour
# [2] = endpoint: median tumor weight (est.), dose: 50.0 mg/kg/injection, schedule: Q07DX002 (ip), vehicle: saline with Tween-80, higher = larger tumour
# [3] = endpoint: median tumor weight (est.), dose: 100.0 mg/kg/injection, schedule: Q07DX002 (ip), vehicle: saline with Tween-80, higher = larger tumour
# [4] = endpoint: median tumor weight (est.), dose: 200.0 mg/kg/injection, schedule: Q07DX002 (ip), vehicle: saline with Tween-80, higher = larger tumour
# [5] = endpoint: median tumor weight (est.), dose: 400.0 mg/kg/injection, schedule: Q07DX002 (ip), vehicle: saline with Tween-80, higher = larger tumour
# [6] = endpoint: median tumor weight (est.), dose: 50.0 mg/kg/injection, schedule: Q07DX002 (ip), vehicle: saline, higher = larger tumour
# [7] = endpoint: median tumor weight (est.), dose: 100.0 mg/kg/injection, schedule: Q07DX002 (ip), vehicle: saline, higher = larger tumour
# [8] = endpoint: median tumor weight (est.), dose: 200.0 mg/kg/injection, schedule: Q07DX002 (ip), vehicle: saline, higher = larger tumour
# [9] = endpoint: median tumor weight (est.), dose: 400.0 mg/kg/injection, schedule: Q07DX002 (ip), vehicle: saline, higher = larger tumour
structure (smiles),measurement,setting,value
COc1cccc(C2NC(=O)c3c(n[nH]c3N)S2)c1O (stereo unspecified),T/C,[1],102 % of control
same,T/C,[2],106 % of control
same,T/C,[3],90 % of control
same,T/C,[4],94 % of control
same,T/C,[5],59 % of control
Cc1ccc(N)c(N)c1,T/C,[1],80 % of control
same,T/C,[2],89 % of control
same,T/C,[3],101 % of control
same,T/C,[4],114 % of control
same,T/C,[5],96 % of control
C[C@]12CC[C@@H]3c4ccc(OC(=O)Cc5ccc(N(CCCl)CCCl)cc5)cc4CC[C@H]3[C@@H]1CC[C@@H]2OC(=O)Cc1ccc(N(CCCl)CCCl)cc1,T/C,[2],185 % of control
same,T/C,[3],176 % of control
same,T/C,[4],173 % of control and 201 % of control
same,T/C,[5],256 % of control
same,T/C,"endpoint: median tumor weight (est.), dose: 800.0 mg/kg/injection, schedule: Q07DX002 (ip), vehicle: saline with Tween-80, higher = larger tumour",195 % of control
Cc1ccccc1CN1C2=NCCN2C(=O)C2=C1CCN(S(=O)(=O)c1ccc(Cl)c(S(N)(=O)=O)c1)C2,T/C,[6],97 % of control
same,T/C,[7],86 % of control
same,T/C,[8],91 % of control
same,T/C,[9],96 % of control
same,T/C,"endpoint: median tumor weight (est.), dose: 450.0 mg/kg/injection, schedule: Q07DX002 (ip), vehicle: saline, higher = larger tumour",84 % of control
same,T/C,"endpoint: median tumor weight (est.), dose: 900.0 mg/kg/injection, schedule: Q07DX002 (ip), vehicle: saline, higher = larger tumour",100 % of control
same,T/C,"endpoint: median tumor weight (est.), dose: 1800.0 mg/kg/injection, schedule: Q07DX002 (ip), vehicle: saline, higher = larger tumour",110 % of control
CC(C)C(N)C(=O)Nc1nncs1 (stereo unspecified),T/C,[7],108 % of control and 98 % of control
same,T/C,[8],68 % of control and 88 % of control
same,T/C,[9],45 % of control and 48 % of control
CCCCCCCCCCCCCCCC(=O)O[C@@]12C[C@@H](C)[C@@]3(O)[C@@H](C=C(CO)C[C@]4(O)C(=O)C(C)=C[C@@H]34)[C@@H]1C2(C)C,T/C,"endpoint: median tumor weight (est.), dose: 0.06 mg/kg/injection, schedule: Q07DX002 (ip), vehicle: saline, higher = larger tumour",92 % of control
same,T/C,"endpoint: median tumor weight (est.), dose: 0.25 mg/kg/injection, schedule: Q07DX002 (ip), vehicle: saline, higher = larger tumour",91 % of control
same,T/C,"endpoint: median tumor weight (est.), dose: 0.5 mg/kg/injection, schedule: Q07DX002 (ip), vehicle: saline, higher = larger tumour",101 % of control
same,T/C,"endpoint: median tumor weight (est.), dose: 1.0 mg/kg/injection, schedule: Q07DX002 (ip), vehicle: saline, higher = larger tumour",60 % of control
NC(=O)C#CC(N)=O,T/C,"endpoint: median tumor weight (est.), dose: 0.12 mg/kg/injection, schedule: Q07DX002 (ip), vehicle: Klucel (hydroxypropylcellulose) (HPC), higher = larger tumour",88 % of control
same,T/C,"endpoint: median tumor weight (est.), dose: 0.23 mg/kg/injection, schedule: Q07DX002 (ip), vehicle: Klucel (hydroxypropylcellulose) (HPC), higher = larger tumour",97 % of control
same,T/C,"endpoint: median tumor weight (est.), dose: 0.45 mg/kg/injection, schedule: Q07DX002 (ip), vehicle: Klucel (hydroxypropylcellulose) (HPC), higher = larger tumour",85 % of control
same,T/C,"endpoint: median tumor weight (est.), dose: 0.9 mg/kg/injection, schedule: Q07DX002 (ip), vehicle: Klucel (hydroxypropylcellulose) (HPC), higher = larger tumour",91 % of control
CO[C@H]1C[C@](C)(O)Cc2cc3c(c(O)c21)C(=O)c1c(O)cc2c(c1C3=O)O[C@@H]1O[C@@]2(C)[C@H](O)[C@@H](N(C)C)[C@@H]1O,T/C,"endpoint: median survival time, dose: 72.0 mg/kg/injection, schedule: Q07DX003 (sc), vehicle: other, higher = longer survival",166 % of control
same,T/C,"endpoint: median tumor weight (est.), dose: 12.5 mg/kg/injection, schedule: Q07DX002 (ip), vehicle: other, higher = larger tumour",69 % of control
same,T/C,"endpoint: median tumor weight (est.), dose: 25.0 mg/kg/injection, schedule: Q07DX002 (ip), vehicle: other, higher = larger tumour",21 % of control and 41 % of control
same,T/C,"endpoint: median tumor weight (est.), dose: 50.0 mg/kg/injection, schedule: Q07DX002 (ip), vehicle: other, higher = larger tumour",1 % of control
Cc1c2ccccc2c(C)c2c1cc(C(=O)O)c1ccccc12,T/C,"endpoint: median tumor weight (est.), dose: 62.5 mg/kg/injection, schedule: Q07DX002 (ip), vehicle: other, higher = larger tumour",67 % of control
same,T/C,"endpoint: median tumor weight (est.), dose: 125.0 mg/kg/injection, schedule: Q07DX002 (ip), vehicle: other, higher = larger tumour",101 % of control
same,T/C,"endpoint: median tumor weight (est.), dose: 250.0 mg/kg/injection, schedule: Q07DX002 (ip), vehicle: other, higher = larger tumour",152 % of control
same,T/C,"endpoint: median tumor weight (est.), dose: 500.0 mg/kg/injection, schedule: Q07DX002 (ip), vehicle: other, higher = larger tumour",58 % of control
same,T/C,"endpoint: median tumor weight (est.), dose: 1000.0 mg/kg/injection, schedule: Q07DX002 (ip), vehicle: other, higher = larger tumour",87 % of control
O=C(O)Cc1cccc2c(=O)cc(-c3ccco3)oc12,T/C,[6],74 % of control
same,T/C,[7],53 % of control
Cc1cc(N(CCOS(C)(=O)=O)CCOS(C)(=O)=O)ccc1C=Nc1ccc(-c2nc(Cc3ccccc3)sc2C)cc1,T/C,"endpoint: median tumor weight (est.), dose: 12.5 mg/kg/injection, schedule: Q07DX002 (ip), vehicle: Klucel (hydroxypropylcellulose) (HPC), higher = larger tumour",112 % of control and 91 % of control
same,T/C,"endpoint: median tumor weight (est.), dose: 25.0 mg/kg/injection, schedule: Q07DX002 (ip), vehicle: Klucel (hydroxypropylcellulose) (HPC), higher = larger tumour",100 % of control and 102 % of control
same,T/C,"endpoint: median tumor weight (est.), dose: 50.0 mg/kg/injection, schedule: Q07DX002 (ip), vehicle: Klucel (hydroxypropylcellulose) (HPC), higher = larger tumour",112 % of control and 98 % of control
same,T/C,"endpoint: median tumor weight (est.), dose: 100.0 mg/kg/injection, schedule: Q07DX002 (ip), vehicle: Klucel (hydroxypropylcellulose) (HPC), higher = larger tumour",63 % of control and 76 % of control
same,T/C,"endpoint: median tumor weight (est.), dose: 200.0 mg/kg/injection, schedule: Q07DX002 (ip), vehicle: Klucel (hydroxypropylcellulose) (HPC), higher = larger tumour",18 % of control and 30 % of control
Nc1nc2c(ncn2C2OC(CO)C(O)C2N)c(=O)[nH]1 (stereo unspecified),T/C,[2],73 % of control
same,T/C,[3],74 % of control
Nc1ccn([C@@H](C=O)O[C@@H](C=O)CO)c(=O)n1,T/C,"endpoint: median tumor weight (est.), dose: 12.5 mg/kg/injection, schedule: Q07DX002 (ip), vehicle: saline, higher = larger tumour",99 % of control
same,T/C,"endpoint: median tumor weight (est.), dose: 25.0 mg/kg/injection, schedule: Q07DX002 (ip), vehicle: saline, higher = larger tumour",71 % of control
same,T/C,[6],58 % of control
same,T/C,[7],86 % of control
same,T/C,[8],73 % of control
Cc1cn(C2CC(O)C(CO)O2)c(=O)[nH]c1=O (stereo unspecified),T/C,"endpoint: median tumor weight (est.), dose: 25.0 mg/kg/injection, schedule: Q07DX003 (ip), vehicle: saline, higher = larger tumour",54 % of control and 79 % of control
same,T/C,"endpoint: median tumor weight (est.), dose: 50.0 mg/kg/injection, schedule: Q03HX024 (ip), vehicle: saline, higher = larger tumour",95 % of control
same,T/C,"endpoint: median tumor weight (est.), dose: 50.0 mg/kg/injection, schedule: Q07DX003 (ip), vehicle: saline, higher = larger tumour",76 % of control
same,T/C,"endpoint: median tumor weight (est.), dose: 100.0 mg/kg/injection, schedule: Q03HX024 (ip), vehicle: saline, higher = larger tumour",98 % of control
same,T/C,"endpoint: median tumor weight (est.), dose: 200.0 mg/kg/injection, schedule: Q03HX024 (ip), vehicle: saline, higher = larger tumour",66 % of control
same,T/C,"endpoint: median tumor weight (est.), dose: 200.0 mg/kg/injection, schedule: Q07DX003 (ip), vehicle: saline, higher = larger tumour",90 % of control
same,T/C,"endpoint: median tumor weight (est.), dose: 400.0 mg/kg/injection, schedule: Q03HX024 (ip), vehicle: saline, higher = larger tumour",122 % of control
same,T/C,"endpoint: median tumor weight (est.), dose: 400.0 mg/kg/injection, schedule: Q07DX003 (ip), vehicle: saline, higher = larger tumour",89 % of control and 101 % of control
Clc1cc(Cl)c(C[N+]23CN4CN(CN(C4)C2)C3)cc1Cl,T/C,"endpoint: median tumor weight (est.), dose: 12.5 mg/kg/injection, schedule: Q07DX002 (ip), vehicle: saline with Tween-80, higher = larger tumour",80 % of control and 90 % of control
same,T/C,[1],118 % of control
O=CN(SSN(C=O)C1CCCCC1)C1CCCCC1,T/C,[1],98 % of control and 99 % of control
same,T/C,[2],77 % of control and 78 % of control
same,T/C,[4],113 % of control and 98 % of control
CCC1CC2CN(CCc3c([nH]c4ccccc34)C(C(=O)OC)(c3cc4c(cc3OC)N(C)C3C(O)(C(=O)OC)C(OC(C)=O)C5(CC)C=CCN6CCC43C65)C2)C1 (stereo unspecified),T/C,"endpoint: median tumor weight (est.), dose: 0.25 mg/kg/injection, schedule: Q07DX002 (ip), vehicle: suspension in saline, higher = larger tumour",162 % of control
same,T/C,"endpoint: median tumor weight (est.), dose: 0.5 mg/kg/injection, schedule: Q07DX002 (ip), vehicle: suspension in saline, higher = larger tumour",158 % of control
same,T/C,"endpoint: median tumor weight (est.), dose: 1.0 mg/kg/injection, schedule: Q07DX002 (ip), vehicle: suspension in saline, higher = larger tumour",167 % of control
COC(=O)C(CSC(c1ccccc1)(c1ccccc1)c1ccccc1)NC(=O)C(CC(N)=O)NC(=O)OCc1ccccc1 (stereo not drawn) (Cbz-Asn-Cys(Trt)-OMe; configuration not given here),T/C,"endpoint: median tumor weight (est.), dose: 25.0 mg/kg/injection, schedule: Q07DX002 (ip), vehicle: distilled water + Tween-80, higher = larger tumour",95 % of control
same,T/C,"endpoint: median tumor weight (est.), dose: 50.0 mg/kg/injection, schedule: Q07DX002 (ip), vehicle: distilled water + Tween-80, higher = larger tumour",60 % of control
same,T/C,"endpoint: median tumor weight (est.), dose: 100.0 mg/kg/injection, schedule: Q07DX002 (ip), vehicle: distilled water + Tween-80, higher = larger tumour",95 % of control
same,T/C,"endpoint: median tumor weight (est.), dose: 200.0 mg/kg/injection, schedule: Q07DX002 (ip), vehicle: distilled water + Tween-80, higher = larger tumour",84 % of control and 88 % of control
same,T/C,"endpoint: median tumor weight (est.), dose: 400.0 mg/kg/injection, schedule: Q07DX002 (ip), vehicle: distilled water + Tween-80, higher = larger tumour",77 % of control
same,T/C,"endpoint: median tumor weight (est.), dose: 800.0 mg/kg/injection, schedule: Q07DX002 (ip), vehicle: distilled water + Tween-80, higher = larger tumour",56 % of control
CCOC(=O)C(N)CSC(=O)NC (stereo unspecified),T/C,"endpoint: median tumor weight (est.), dose: 125.0 mg/kg/injection, schedule: Q07DX002 (ip), vehicle: saline, higher = larger tumour",83 % of control
same,T/C,"endpoint: median tumor weight (est.), dose: 250.0 mg/kg/injection, schedule: Q07DX002 (ip), vehicle: saline, higher = larger tumour",110 % of control
same,T/C,"endpoint: median tumor weight (est.), dose: 500.0 mg/kg/injection, schedule: Q07DX002 (ip), vehicle: saline, higher = larger tumour",81 % of control
